Reference: US11845938B2, “Aptamer compositions and the use thereof” (City of Hope, priority 2016, dated 2023)
“Also recorded” adds a separate entry of the source.

How the values were obtained:
[1] = bypassing dCK deficiency, reference [5]; cited from earlier work
[2] = test system: PANC-1 cells; experiment: Flow cytometry-based binding assay, apparent dissociation constant (KD) of Cy3-labeled aptamers; settings: flow cytometry MFI, one-site binding model, read-out: binding affinity (dissociation constant, KD)
Description: FIGS. 1A-1D. ApDCs of gemcitabine and 5-FU. (FIG. 1A) Chemical structure of gemcitabine and 5-FU prodrug (5F-dUTP). (FIG. 1B) The sequence of P19 incorporated with dFdCMP (dFdCTP) (SEQ ID NO: 18) and 5FdUMP (5FdUTP) (SEQ ID NO: 19) into P19, instead of 2′F-CTP and 2′F-UTP. (FIG. 1C) Intrinsic incorporation of active metabolites of gemcitabine (dFdCMP) and 5FdUMP in P19. M: Marker. 1:P19, 2: P19-dFdCMP, 3:P19-5FdUMP. (FIG. 1D) The dissociation constant (KD) was measured by flow cytometry using increasing concentrations of Cy3-labeled aptamers (from 15.6 to 1000 nM). Mean fluorescence intensity (MFI) was measured and calculated using a one-site binding model for non-linear regression.
FIGS. 4A-4C. […] Mean fluorescence intensity (MFI) was measured and calculated using a one-site binding model for non-linear regression. […] (FIG. 4B) The pancreatic cell lines PANC-1 and AsPC-1 were treated with 200 nM of the Cy3-labeled tP19 aptamer and analyzed by confocal microscopy. […]
Aptamer binding and uptake was also assessed by flow cytometry. […] Cells were washed with binding buffer and immediately analyzed by Fortessa flow cytometry (BD). […] The data were analyzed with FlowJo software.
To determine the apparent dissociation constant (KD) of aptamers to PANC-1 cells, the mean fluorescence intensity (MFI) was calculated for each concentration and for the unselected library controls. […]

[3] = test system: PANC-1 cells; experiment: Live-cell confocal imaging, aptamer internalization; format: cell-based; settings: Cy3-labeled RNAs at 200 nM, 2 hour, confocal microscopy
Description: FIGS. 2A-2D. Cell proliferation assay of dFdC-P19-ApDC and 5FdU-P19-ApDC. (FIGS. 2A-2B) The pancreatic cell lines PANC-1 were treated with 200 nM of the Cy3-labeled dFdCMP-P19-ApDC (FIG. 2A) or 5FdUMP-P19-ApDC (FIG. 2B) and analyzed by confocal microscopy. […] Dyes: Cy3 labeled RNAs, Hoechst 33342. Scale bar: […]. (FIG. 2C) After treatment dFdCMP-P19-ApDC or 5FdUMP-P19-ApDC in PANC-1 cells for 72 hrs, cell viability was measured by MTT assay. One-way ANOVA test: ****≤0.0001, ***≤0.001. (FIG. 2D) After treatment dFdCMP-P19-ApDC or 5FdUMP-P19-ApDC in chemo-resistance AsPC-1 cells for 72 hrs, cell viability was measured by MTT assay. One-way ANOVA test: ****≤0.0001, ***≤0.001
(§1) FIGS. 4A-4C. Binding affinity and cell internalization of truncated P19 (tP19). (FIG. 4A) The dissociation constant (KD) was measured by flow cytometry using increasing concentrations of Cy3-labeled aptamers (from 15.6 to 500 nM). Mean fluorescence intensity (MFI) was measured and calculated using a one-site binding model for non-linear regression. […] (FIG. 4B) The pancreatic cell lines PANC-1 and AsPC-1 were treated with 200 nM of the Cy3-labeled tP19 aptamer and analyzed by confocal microscopy. […] (FIG. 4C) Non pancreatic lines including Huh7, HepG2, MCF7 and PC3 cells were also treated with 200 nM of Cy3-labeled tP19 and P1 aptamers. […] Dye Hoechst 33342. Scale bar: 10 μm.
FIGS. 5A-5D. […]

[4] = test system: AsPC-1 cells; experiment: as above; format: cell-based; settings: 200 nM Cy3-labeled aptamer, confocal microscopy
Description: as §1
(§2) For the aptamer internalization studies, 1×10^5 cells were seeded in 35 mm glass-bottom dishes (MatTek, Ashland, Mass., USA) and grown in medium for 24 hrs. The RNAs were labeled with Cy3 using the Cy3 Silencer siRNA labeling kit (Ambion, Tex., USA.). Cy3-labeled RNAs were added to the cells at 200 nM or 500 nM and incubated for 2 hour. The images were taken using a Zeiss LSM 510 Meta Inverted 2 photon confocal microscope system using a C-Apo 40x/1.2NA water immersion objective.

[5] = test system: Huh7, HepG2, MCF7 and PC3 cells; experiment: Live-cell confocal imaging, aptamer internalization in non pancreatic lines; format: cell-based; settings: 200 nM Cy3-labeled aptamer
Description: as §1, §2

gemcitabine monophosphate [dFdCMP]
effectiveness relative to dFdC [1]: 4 fold

tP19: truncated form of aptamer P19, SEQ ID NO: 3, 28 bps in length, mHSP70 binding aptamer (CUCAAUGGCGAAUGCCCGCCUAAUAGGG; listed as RNA, chemistry not fully specified)
Kd [2]: 8.57 nM | internalization into PANC-1 cells [3]: internalized into PANC-1 and AsPC-1 cells | internalization into AsPC-1 cells [4]: internalized into PANC-1 and AsPC-1 cells | internalization (Cy3 signal) in non-pancreatic cancer cell lines [5]: No Cy3 signal was observed; also recorded: not in non-pancreatic cancer cell lines

B1: P1: RNA aptamer SEQ ID NO: 1, mHSP70 binding aptamer internalizing upon binding mHSP70 at the cell surface (nucleic acid)
chain: GGGAGACAAGAAUAAACGCUCAAUGCGCUGAAUGCCCAGCCGUGAAAGCGUCGAUUUCCAUCCUUCGACAGGAGGCUCACAACAGGC
modifications: listed as RNA, chemistry not fully specified
internalization (Cy3 signal) in non-pancreatic cancer cell lines [5]: No Cy3 signal was observed
